These results are taken from patent publication US20260007681A1, “INDOLE DERIVATIVES AS ESTROGEN RECEPTOR DEGRADERS” (REGENTS OF THE UNIVERSITY OF MICHIGAN, priority 2022, published 2026).

Format in all cases: cell-based
Experiment [1] can be described thus: Cell growth assay (WST-8) (Compounds B1-B278). The conditions noted are these: 96 h; T47D cell line; WST-8, 4 days; read-out: Cell Growth Inhibition in T47D cell line IC50. How it is done: Cell Growth Assay. The cells are seeded at certain concentration (e.g., at 1500/well) in multi-well plates overnight. Cells are subsequently treated with the compounds. A certain period of time (e.g., 4 days) after the compound treatment, 10% WST-8 reagent is added to the culture medium and incubate under certain condiction (e.g., in a CO2 incubator at 37° C. for 2.5 hours). The absorbance is measured on each sample using a microplate reader at certain wavelength (e.g., 450 nm). The relative absorbance is calculated against the vehicle control from three individually repeats.
Cell Growth Assay. The cells were seeded at 1500/well in 96 well plates overnight. One day after the seeding, they were treated with indicated doses of compounds respectively. 4 days after the compound treatment, 10% WST-8 reagent was added to the culture medium and incubate in a CO2 incubator at 37° C. for 2.5 hours. Before reading, the plate was mixed gently on an orbital shaker for one minute to ensure homogeneous distribution of color. The absorbance was measured of each sample using a microplate reader at a wavelength of 450 nm. The relative absorbance was calculated against the vehicle control from three individually repeats.

Experiment [2] has as its target T1, ER (Homo sapiens (Human), UniProt P03372). Description: In-cell western blot analysis of relative ER percentage (Compounds B1-B278). The conditions noted are these: ER degradation, 16 hours, read-out: ICW DC50. Here is the method: In-cell western blot analysis. Cells are seeded in multi-well plates (e.g., at 40,000 or 10,000 cells/well). Diluted compounds at certain concentration are added (final 0.5% DMSO) and cells are incubated for […] (e.g., 16 hours). Formaldehyde (e.g., PBS:FA=9:1) is added and followed by washing with PBS. The cells are blocked with Licor blocking buffer (Li-Cor). The relative ER percentage in treated cells are obtained by comparing the values of treated wells to those in untreated and DMSO-treated wells as 100%.
In-cell western blot analysis. a. seed cells in black-sided/clear bottom 96- or 384-well plates at 40,000 or 10,000 cells/well, overnight; b. add diluted compounds (final 0.5% DMSO), 16 hours. 16 h later, remove medium, add 100 μL or 25 μL of 3.7-4.0% formaldehyde (PBS:FA=9:1), RT 20 min, no shaking; c. wash with PBS, and permeabilized with 100 μL or 25 μL/well of 1×PBS+0.1% Triton X-100 10 minutes; d. block with 100 μL or 25 μL Licor blocking buffer (Li-Cor), RT 1 h, moderate shaking; d. Add 100 μL or 25 μL of anti-ER (cs-8644, 1:500-1,000)+GAPDH(Millipore MAB374, 1:1000) in Block+0.05% Tween 20. RT 2 h, gentle shaking. Negative control: cells plus secondary antibodies (no primary antibodies); e. wash×4 with PBS +0.05-0.1% Tween 20, gentel shaking; f. anti-rabbit-680 and anti-mouse-800 (both 1:1000 in LiCor block +0.05% Tween20, RT 1 h, gentle shaking, no light. LI-COR: 0.2% to reduce background; g. wash×4 with PBS+0.05% Tween 20, gental shaking; h. add 100 μL or 25 μL of PBS to each well and read on CLX plate reader. The relative ER percentage in treated cells were obtained by comparing the values of treated wells to those in untreated and DMSO-treated wells as 100%.

The target of experiment [3] is T1, ER. As to the kind of experiment: Western blot analysis (Compounds B1-B278). As to conditions: ER degradation by traditional Western blot; DC50 classes. In outline: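 Compound-treated cells were lysed in RIPA buffer (Tris.HCl pH 7.6, 1% NP-40, deoxycholate, 0.1% SDS) with protease inhibitors; equal protein was resolved on 10% SDS-PAGE, transferred to PVDF and immunoblotted. Band intensities were quantified and normalized to GAPDH.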

T1 sequence (P03372 whole entry): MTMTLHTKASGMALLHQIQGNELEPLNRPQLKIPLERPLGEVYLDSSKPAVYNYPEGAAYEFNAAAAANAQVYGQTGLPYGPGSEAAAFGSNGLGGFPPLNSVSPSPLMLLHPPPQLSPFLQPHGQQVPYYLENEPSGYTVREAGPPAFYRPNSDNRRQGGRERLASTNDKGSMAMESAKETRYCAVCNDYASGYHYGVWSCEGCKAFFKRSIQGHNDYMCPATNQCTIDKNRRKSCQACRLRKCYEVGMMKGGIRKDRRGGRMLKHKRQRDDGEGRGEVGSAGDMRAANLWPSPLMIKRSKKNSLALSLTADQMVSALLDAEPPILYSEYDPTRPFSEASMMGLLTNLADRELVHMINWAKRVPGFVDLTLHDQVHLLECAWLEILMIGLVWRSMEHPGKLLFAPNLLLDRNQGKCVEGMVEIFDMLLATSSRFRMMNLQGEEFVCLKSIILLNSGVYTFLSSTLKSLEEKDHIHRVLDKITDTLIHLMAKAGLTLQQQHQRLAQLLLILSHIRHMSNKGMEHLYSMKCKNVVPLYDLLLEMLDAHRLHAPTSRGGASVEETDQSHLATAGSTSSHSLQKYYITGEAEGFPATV

Turning to `C[C@@H]1Cc2c([nH]c3ccccc23)[C@@H](c2c(F)cc(N3CC(C(=O)N4CCN5c6ccc7c(c6OC[C@H]5C4)CN(C4CCC(=O)NC4=O)C7=O)C3)cc2F)N1CC(F)F` (mixture of isomers) [Compound B251, 3-((RS)-7-(1-(4-((1R,3R)-2-(2,2-difluoroethyl)-3-methyl-2,3,4,9-tetrahydro-1H-pyrido[3,4-b]indol-1-yl)-3,5-difluorophenyl)azetidine-3-carbonyl)-1-oxo-1,3,5,5a,6,7,8,9-octahydro-2H-pyrazino[1′,2′:4,5][1,4]oxazino[2,3-e]isoindol-2-yl)piperidine-2,6-dione], in experiment [1], the IC50 was less than 0.001 µM. The DC50 on ER [2] was in the range of 0.01 to 0.1 µM.
For the compound `C[C@@H]1Cc2c([nH]c3ccccc23)[C@@H](c2c(F)cc(N3CCC(C(=O)N4CCN5c6ccc7c(c6OC[C@H]5C4)CN(C4CCC(=O)NC4=O)C7=O)CC3)cc2F)N1CC(C)(F)F` (mixture of isomers) [Compound B252, 3-((RS)-7-(1-(4-((1R,3R)-2-(2,2-difluoropropyl)-3-methyl-2,3,4,9-tetrahydro-1H-pyrido[3,4-b]indol-1-yl)-3,5-difluorophenyl)piperidine-4-carbonyl)-1-oxo-1,3,5,5a,6,7,8,9-octahydro-2H-pyrazino[1′,2′:4,5][1,4]oxazino[2,3-e]isoindol-2-yl)piperidine-2,6-dione], at ER [2], the DC50 lay within 0.01 to 0.1 µM.
Take `C[C@@H]1Cc2c([nH]c3ccccc23)[C@@H](c2cnc(N3CC4(CCC(N5CCN6c7cc8c(cc7OC[C@@H]6C5)C(=O)N(C5CCC(=O)NC5=O)C8)CC4)C3)nc2)N1CC(F)F` (stereo partly drawn) [Compound 1B32, 3-((S)-3-(2-(5-((1R,3R)-2-(2,2-difluoroethyl)-3-methyl-2,3,4,9-tetrahydro-1H-pyrido[3,4-b]indol-1-yl)pyrimidin-2-yl)-2-azaspiro[3.5]nonan-7-yl)-8-oxo-1,2,3,4,4a,5,8,10-octahydro-9H-pyrazino[1′,2′:4,5][1,4]oxazino[2,3-f]isoindol-9-yl)piperidine-2,6-dione]: the IC50 in experiment [1] is greater than 0.01 µM.
For `C[C@@H]1Cc2c([nH]c3ccccc23)[C@@H](c2cnc(N3CC(CCN4CCN5c6cc7c(cc6OC[C@@H]5C4)C(=O)N(C4CCC(=O)NC4=O)C7)C3)nc2)N1CC(F)F` (stereo partly drawn) [Compound B131, 3-((S)-3-(2-(1-(5-((1R,3R)-2-(2,2-difluoroethyl)-3-methyl-2,3,4,9-tetrahydro-1H-pyrido[3,4-b]indol-1-yl)pyrimidin-2-yl)azetidin-3-yl)ethyl)-8-oxo-1,2,3,4,4a,5,8,10-octahydro-9H-pyrazino[1,2′:4,5][1,4]oxazino[2,3-f]isoindol-9-yl)piperidine-2,6-dione], the concentration for half-maximal inhibition (IC50) in experiment [1] is greater than 0.01 µM.
With `C[C@@H]1Cc2c([nH]c3ccccc23)[C@@H](c2cnc(N3CC4(CC(CN5CCN6c7cc8c(cc7OC[C@@H]6C5)C(=O)N(C5CCC(=O)NC5=O)C8)C4)C3)nc2)N1CC(F)F` (stereo partly drawn) [Compound B133, 3-((S)-3-((2-(5-((1R,3R)-2-(2,2-difluoroethyl)-3-methyl-2,3,4,9-tetrahydro-1H-pyrido[3,4-b]indol-1-yl)pyrimidin-2-yl)-2-azaspiro[3.3]heptan-6-yl)methyl)-8-oxo-1,2,3,4,4a,5,8,10-octahydro-9H-pyrazino[1′,2′:4,5][1,4]oxazino[2,3-f]isoindol-9-yl)piperidine-2,6-dione], in experiment [1], the IC50 fell in the range of 0.001 to 0.01 µM.
Take `COc1c2c(cc3c1CN(C1CCC(=O)NC1=O)C3=O)CN(CC(=O)N1CCC3(CC1)CCN(c1ncc([C@@H]4c5[nH]c6ccccc6c5C[C@@H](C)N4CC(F)F)cn1)CC3)C2` (stereo partly drawn) [Compound B134, 3-(6-(2-(9-(5-((1R,3R)-2-(2,2-difluoroethyl)-3-methyl-2,3,4,9-tetrahydro-1H-pyrido[3,4-b]indol-1-yl)pyrimidin-2-yl)-3,9-diazaspiro[5.5]undecan-3-yl)-2-oxoethyl)-4-methoxy-1-oxo-3,5,6,7-tetrahydropyrrolo[3,4-f]isoindol-2(1H)-yl)piperidine-2,6-dione]: the IC50 in experiment [1] is less than 0.001 µM.
As to `C[C@@H]1Cc2c([nH]c3ccccc23)[C@@H](c2c(F)cc(N3CCN(CC(=O)N4CCN5c6ccc7c(c6OC[C@H]5C4)CN(C4CCC(=O)NC4=O)C7=O)CC3)cc2F)N1CC(F)F` (stereo partly drawn) [Compound B152, 3-((R)-7-(2-(4-(4-((1R,3R)-2-(2,2-difluoroethyl)-3-methyl-2,3,4,9-tetrahydro-1H-pyrido[3,4-b]indol-1-yl)-3,5-difluorophenyl)piperazin-1-yl)acetyl)-1-oxo-1,3,5,5a,6,7,8,9-octahydro-2H-pyrazino[1′,2′:4,5][1,4]oxazino[2,3-e]isoindol-2-yl)piperidine-2,6-dione], at ER [2], the half-maximal degradation concentration (DC50) is greater than 0.1 µM.
`C[C@@H]1Cc2c([nH]c3ccccc23)[C@@H](c2ncc(C3=CCC(C(=O)N4CCC(N5Cc6cc7c(cc6C5)C(=O)N(C5CCC(=O)NC5=O)C7=O)CC4)CC3)cc2F)N1CC(C)(C)F` (stereo partly drawn) [Compound B248, 2-(2,6-dioxopiperidin-3-yl)-6-(1-(4-(5-fluoro-6-((1S,3R)-2-(2-fluoro-2-methylpropyl)-3-methyl-2,3,4,9-tetrahydro-1H-pyrido[3,4-b]indol-1-yl)pyridin-3-yl)cyclohex-3-ene-1-carbonyl)piperidin-4-yl)-6,7-dihydropyrrolo[3,4-f]isoindole-1,3(2H,5H)-dione]: on ER [3], the “Traditional Western Degradation Potency” value is reported as “C (“C”: >100 nM)”.
The same measure, in the same setting: as for `C[C@@H]1Cc2c([nH]c3ccccc23)[C@@H](c2c(F)cc(C3=CCC(C(=O)N4CCC(N5Cc6cc7c(cc6C5)C(=O)N(C5CCC(=O)NC5=O)C7=O)CC4)CC3)cc2F)N1CC1(F)CC1` (stereo partly drawn) [Compound B249, 6-(1-(3′,5′-difluoro-4′-((1R,3R)-2-((1-fluorocyclopropyl)methyl)-3-methyl-2,3,4,9-tetrahydro-1H-pyrido[3,4-b]indol-1-yl)-2,3,4,5-tetrahydro-[1,1′-biphenyl]-4-carbonyl)piperidin-4-yl)-2-(2,6-dioxopiperidin-3-yl)-6,7-dihydropyrrolo[3,4-f]isoindole-1,3(2H,5H)-dione], the entry is “C (“C”: >100 nM)”; as for `C[C@@H]1Cc2c([nH]c3ccccc23)[C@@H](c2ccc(C3=CCC(C(=O)N4CCC(N5Cc6cc7c(cc6C5)C(=O)N(C5CCC(=O)NC5=O)C7=O)CC4)CC3)cc2F)N1CC1(F)CC1` (stereo partly drawn) [Compound B250, 2-(2,6-dioxopiperidin-3-yl)-6-(1-(3′-fluoro-4′-((1R,3R)-2-((1-fluorocyclopropyl)methyl)-3-methyl-2,3,4,9-tetrahydro-1H-pyrido[3,4-b]indol-1-yl)-2,3,4,5-tetrahydro-[1,1′-biphenyl]-4-carbonyl)piperidin-4-yl)-6,7-dihydropyrrolo[3,4-f]isoindole-1,3(2H,5H)-dione], “C (“C”: >100 nM)”.
For `COc1cc(N2CCC3(CC2)CC(CN2CCN4c5ccc6c(c5OC[C@H]4C2)CN(C2CCC(=O)NC2=O)C6=O)CO3)ccc1[C@@H]1c2[nH]c3ccccc3c2C[C@@H](C)N1CC(C)(C)F` (stereo partly drawn) [Compound B265, 3-((5aR)-7-((8-(4-((1R,3R)-2-(2-fluoro-2-methylpropyl)-3-methyl-2,3,4,9-tetrahydro-1H-pyrido[3,4-b]indol-1-yl)-3-methoxyphenyl)-1-oxa-8-azaspiro[4.5]decan-3-yl)methyl)-1-oxo-1,3,5,5a,6,7,8,9-octahydro-2H-pyrazino[1′,2′:4,5][1,4]oxazino[2,3-e]isoindol-2-yl)piperidine-2,6-dione], the DC50 at ER [2] was 0.01 to 0.1 µM.
